This note sets out measurements from BindingDB's records for doi:10.1021/jm049787k (Pharmaceutical Research Institute, 2004).

The assay has as its target Corticotropin-releasing factor receptor 2 (Sus scrofa). Briefly: Inhibition of [125I]- sauvagine binding to corticotropin releasing factor receptor 2 of porcine choroid plexus.

As a reminder, the IC50 is the point on the concentration scale where inhibition reaches its midpoint. For `CCc1nc2c(n1C(C1CC1)C1CC1)C(=O)N(C)CN2c1ccc(Cl)cc1Cl` [3-(2,4-Dichloro-phenyl)-7-dicyclopropylmethyl-8-ethyl-1-methyl-1,2,3,7-tetrahydro-purin-6-one], the IC50 was above 10 µM.
